Here are results for one compound from patent publication US8227513B2, “Food composition for binding acetaldehyde in mouth and in digestive track, and method for the preparation of the composition” (Biohit Oyj, priority 2005, dated 2012).

This experiment is described as follows: capability of cysteine to bind acetaldehyde from beers and yoghurts (gas chromatograph). The note with it: for acetaldehyde concentration after the treatment: incubated 5 min at room temperature. How it is done: In the test, the capability of cysteine to bind acetaldehyde from light alcohol drinks and milk products, such as yoghurt, was examined. The amounts of acetaldehyde in four Finnish yoghurts and three beers were measured by means of a standardized method (Homann et al. 1997. High acetaldehyde levels in saliva after ethanol consumption: Methodological aspects and pathogenic implications. Carcinogenesis 18:1739-1743). The average acetaldehyde concentration (±SEM) in the beers was 146±30 μM. L-cysteine was added to the beers so that the final cysteine concentration of the product was 0 (the control), 0.1, 3 and 10 mM (i.e., 0 mg/l, 12.1 mg/l, 363 mg/l and 1210 mg/l); thereafter, the beers were incubated for 5 min at room temperature. Thereafter, the acetaldehyde contents were measured by means of a gas chromatograph. The acetaldehyde concentrations after the treatment were 146±30 μM, 133±32 μM, 26±9 μM and 10±3 μM, correspondingly. In the yoghurt, the acetaldehyde concentrations were 419±53 μM, on an average. L-cysteine was added so that the cysteine concentrations in the final product were 0 (the control), 0.1, 3 and 10 mM (i.e., 0 mg/l, 12.1 mg/l, 363 mg/l, and 1210 mg/l); thereafter, the yoghurts were incubated for 5 min at room temperature. The acetaldehyde concentrations after the treatment were 419±53 μM, 240±42 μM, 55±15 μM, and 15±2 μM.

For `N[C@@H](CS)C(=O)O` [L-cysteine], the “acetaldehyde concentration after the treatment” value by setting is: (beers (control 146±30 μM), final cysteine concentration 0.1 mM (12.1 mg/l), mean ±SEM) 133 ± 32 µM; (beers (control 146±30 μM), final cysteine concentration 3 mM (363 mg/l), mean ±SEM) 26 ± 9 µM; (beers (control 146±30 μM), final cysteine concentration 10 mM (1210 mg/l), mean ±SEM) 10 ± 3 µM; (yoghurts (control 419±53 μM), cysteine concentration 0.1 mM (12.1 mg/l)) 240 ± 42 µM; (yoghurts (control 419±53 μM), cysteine concentration 3 mM (363 mg/l)) 55 ± 15 µM; (yoghurts (control 419±53 μM), cysteine concentration 10 mM (1210 mg/l)) 15 ± 2 µM. Also, the “acetaldehyde in the products eliminated” value (the products (beers and yoghurts), 3 mM of cysteine (363 mg/l)) was “over 80%”.
